In patent US10202350B2, “MCT4 inhibitors for treating disease” (Vettore, LLC, priority 2015, dated 2019):

Experiments:
MCT1 = MCT1 (Homo sapiens (Human), UniProt P53985); test: MCT1-mediated lactate transport in BT20 breast cancer cells; assay type: cell-based; conditions: native MCT1, 10 mM L-lactate
Description: (§1) 10 μL of a 30 mM DMSO stock of BCECF-AM ester (Life Technologies) is added and the cells are incubated at 37° C. for 5 min. The cells are pelleted (300 g, 5 min), washed once with 1 mL Tyrode's Solution, pH 7.4, re-pelleted (300 g, 5 min), and resuspended in 1 mL Tyrode's Solution, pH 7.4.
(§2) 2.5 μL BCECF-loaded cells, along with either 10 μL DMSO or 100×compound in DMSO, are added to 937.5 μL of Tyrode's Solution in a quartz 1.0 mL cuvette (PerkinElmer, B0631116). […] After establishing baseline BCECF fluorescence (around 10-20 s), 50 μL of 1 M sodium L-lactate (Sigma-Aldrich) is added to the cuvette (final concentration: 50 mM) and rapidly mixed. The time-dependent decrease in BCECF fluorescence (490/440 ratio) may be fit to an exponential decay curve (Prism GraphPad) to determine the rate of lactate transport.
Assay 4: MCT1-Mediated Lactate Transport in BT20 Breast Cancer Cells.
Preparation of BCECF loaded cells are as described for Assay 1. Lactate transport assay is as described for Assay 1, except 10 mM L-lactate (rather than 50 mM) is added.

[1] = Metabolic stability in mouse liver microsomes; assay type: in vitro ADME; conditions: mouse liver microsomes 0.5 mg/mL, 2 μM compound; remaining percentage of parent at 60 min
Description: (§3) Metabolic Stability Assays The following are assays that may be used to evaluate the metabolic stability of compounds of Formula (I) in human or mouse microsomes. 1. […] Two separated experiments were performed as follows. a) With NADPH: 10 μL of 20 mg/mL liver microsomes and 40 μL of 10 mM NADPH were added to the incubations. […] The final concentration of microsomes was 0.5 mg/mL. 3. The reaction was started with the addition of 4 μL of 200 μM control compound or test compound solutions. Verapamil was used as positive control in this study. The final concentration of test compound or control compound was 2 μM. 4. Aliquots of 50 μL were taken from the reaction solution at 0, 15, 30, 45 and 60 min. […] Samples were centrifuged at 3, 220 g for 40 minutes. Aliquot of 90 μL of the supernatant was mixed with 90 μL of ultra-pure H2O and then used for LC-MS/MS analysis. 5. Data analysis. All calculations were carried out using Microsoft Excel. Peak areas were determined from extracted ion chromatograms. The slope value, k, was determined by linear regression of the natural logarithm of the remaining percentage of the parent drug vs. incubation time curve. The in vitro half-life (in vitro t½) was determined from the slope value: in vitro t1/2=−(0.693)/k.

[2] = Metabolic stability in human liver microsomes; assay type: in vitro ADME; conditions: human liver microsomes 0.5 mg/mL, 2 μM compound; remaining percentage of parent at 60 min
Description: as §3

MCT4 [3] = molecular target: T1, MCT4 (Homo sapiens (Human), UniProt O15427); test: MCT4-mediated lactate transport in MDA-MB-231 breast cancer cells; assay type: cell-based; conditions: MDA-MB-231 cells, native MCT4; 50 mM L-lactate
T1 sequence (O15427 whole entry, looked up): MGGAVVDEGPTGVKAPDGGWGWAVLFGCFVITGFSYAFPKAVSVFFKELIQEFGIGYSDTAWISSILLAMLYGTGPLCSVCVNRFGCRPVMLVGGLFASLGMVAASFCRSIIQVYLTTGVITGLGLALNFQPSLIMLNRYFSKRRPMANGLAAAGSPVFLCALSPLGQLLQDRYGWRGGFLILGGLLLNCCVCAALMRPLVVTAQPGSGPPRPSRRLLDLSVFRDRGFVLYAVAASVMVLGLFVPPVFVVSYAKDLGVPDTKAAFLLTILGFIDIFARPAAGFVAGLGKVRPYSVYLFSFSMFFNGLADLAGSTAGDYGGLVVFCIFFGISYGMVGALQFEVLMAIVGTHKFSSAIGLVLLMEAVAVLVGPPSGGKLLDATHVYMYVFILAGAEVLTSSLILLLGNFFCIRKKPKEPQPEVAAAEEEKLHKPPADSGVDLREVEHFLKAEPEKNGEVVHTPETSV
T1 sequence (P35613 whole entry partner, looked up): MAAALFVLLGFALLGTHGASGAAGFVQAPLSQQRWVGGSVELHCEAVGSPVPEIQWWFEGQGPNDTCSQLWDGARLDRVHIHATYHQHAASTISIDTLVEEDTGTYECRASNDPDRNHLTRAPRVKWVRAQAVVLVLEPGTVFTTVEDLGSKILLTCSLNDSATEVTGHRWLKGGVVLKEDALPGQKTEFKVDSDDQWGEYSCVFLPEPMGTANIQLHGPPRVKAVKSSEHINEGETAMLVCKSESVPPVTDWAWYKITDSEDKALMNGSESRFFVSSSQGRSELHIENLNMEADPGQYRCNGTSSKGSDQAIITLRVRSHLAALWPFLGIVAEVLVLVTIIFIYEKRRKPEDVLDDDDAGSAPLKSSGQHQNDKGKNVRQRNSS
Description: as §1, §2
Preparation of BCECF-loaded cells and lactate transport activity may be determined as described for Assay 1.

MCT4 [4] = molecular target: T1, MCT4; test: MCT4-mediated lactate transport in NCI-H358 lung adenocarcinoma cells; assay type: cell-based; conditions: native MCT4, 50 mM L-lactate
Description: as §1, with “Cells (˜7×10^6) are trypsinized (0.05% Trypsin-EDTA), pelleted (300 g, 5 min), and resuspended in 1 mL Tyrode's Solution, pH 7.4 (119 mM NaCl, 5 mM KCl, 25 mM HEPES, pH 7.4, 2 mM CaCl2, 2 mM MgCl2, 6 g/L glucose). 10” for “10”
2.5 μL BCECF-loaded cells, along with either 10 μL DMSO or 100×compound in DMSO, are added to 937.5 μL of Tyrode's Solution in a quartz 1.0 mL cuvette (PerkinElmer, B0631116). Fluorescence measurements are performed on a PerkinElmer LS55 fluorescence spectrometer with dual excitation wavelengths achieved using a filter wheel (FL Winlab program: Fast Filter; Excitation 490/440; Emission 535). After establishing baseline BCECF fluorescence (around 10-20 s), 50 μL of 1 M sodium L-lactate (Sigma-Aldrich) is added to the cuvette (final concentration: 50 mM) and rapidly mixed. The time-dependent decrease in BCECF fluorescence (490/440 ratio) may be fit to an exponential decay curve (Prism GraphPad) to determine the rate of lactate transport.
Assay 2: MCT4-Mediated Lactate Transport in NCI-H358 Lung Adenocarcinoma Cells.
NCI-H358 lung adenocarcinoma cells may be used to measure MCT4 activity in cells with high native levels of MCT4 and low levels of MCT1 and are known to those with skill in the art. Preparation of BCECF-loaded cells and lactate transport activity may be determined as described for Assay 1.

MCT4 [5] = molecular target: T1, MCT4; test: Lactate transport in MCT4-expressing MDA-MB-453 breast cancer cells (BCECF); assay type: cell-based; conditions: MDA-MB-453 cells stably expressing MCT4; 50 mM L-lactate
Description: Assay 1: Lactate Transport in MCT4-Expressing MDA-MB-453 Breast Cancer Cells. […] The following is an exemplary procedure for assaying MCT4 activity of the compounds of Formula (I). Preparing BCECF-Loaded Cells: […] The cells are pelleted (300 g, 5 min), washed once with 1 mL Tyrode's Solution, pH 7.4, re-pelleted (300 g, 5 min), and resuspended in 1 mL Tyrode's Solution, pH 7.4. Lactate Transport Assay: […] Fluorescence measurements are performed on a PerkinElmer LS55 fluorescence spectrometer with dual excitation wavelengths achieved using a filter wheel (FL Winlab program: Fast Filter; […] Emission 535). After establishing baseline BCECF fluorescence (around 10-20 s), 50 μL of 1 M sodium L-lactate (Sigma-Aldrich) is added to the cuvette (final concentration: 50 mM) and rapidly mixed.

Sequence of MCT1 (P53985 whole entry): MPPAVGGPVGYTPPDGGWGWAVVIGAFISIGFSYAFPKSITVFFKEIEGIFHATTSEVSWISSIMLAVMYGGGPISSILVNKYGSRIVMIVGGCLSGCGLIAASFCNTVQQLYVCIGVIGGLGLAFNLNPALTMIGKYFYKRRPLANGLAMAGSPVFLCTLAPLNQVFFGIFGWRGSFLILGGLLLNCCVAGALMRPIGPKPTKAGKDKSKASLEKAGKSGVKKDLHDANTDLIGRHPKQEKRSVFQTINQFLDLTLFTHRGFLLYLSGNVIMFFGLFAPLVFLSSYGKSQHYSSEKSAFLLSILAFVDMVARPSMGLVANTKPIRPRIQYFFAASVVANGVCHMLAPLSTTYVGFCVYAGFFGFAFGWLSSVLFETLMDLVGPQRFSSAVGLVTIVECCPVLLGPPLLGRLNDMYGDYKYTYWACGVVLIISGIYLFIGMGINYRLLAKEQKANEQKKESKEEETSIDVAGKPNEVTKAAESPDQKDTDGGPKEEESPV
Sequence of MCT1 (P35613 140-385 partner): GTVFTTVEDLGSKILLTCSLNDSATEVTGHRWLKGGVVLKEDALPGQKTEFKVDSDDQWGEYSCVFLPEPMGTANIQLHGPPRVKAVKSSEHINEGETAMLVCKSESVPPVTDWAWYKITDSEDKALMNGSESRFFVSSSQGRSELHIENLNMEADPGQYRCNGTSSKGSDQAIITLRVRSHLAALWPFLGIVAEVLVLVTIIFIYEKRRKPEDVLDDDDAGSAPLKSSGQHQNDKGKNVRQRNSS

| Structure (SMILES) | IC50 (MCT1; Table 3) | Mouse microsome % 60 min [1] | Human microsome % 60 min [2] | IC50 (MCT4 [3]) | IC50 (MCT1; Table 2) | IC50 (MCT4 [4]) | IC50 (MCT4 [5]) |
| --- | --- | --- | --- | --- | --- | --- | --- |
| COc1cccc(-c2cc(COC(C)(C)C(=O)O)nn2Cc2ccccc2OC)c1 [Example 36, 2-[[5-(3-Methoxyphenyl)-1-[(2-methoxyphenyl)methyl]pyrazol-3-yl]methoxy]-2-methyl-propanoic acid] | 50000 nM | 99% | 85% | 82 nM | – | – | – |
| COc1cc(-c2cc(COC(C)(C)C(=O)O)nn2Cc2ccccc2Cl)cs1 [Example 66, 2-([1-[(2-chlorophenyl)methyl]-5-(5-methoxythiophen-3-yl)-1H-pyrazol-3-yl]methoxy)-2-methylpropanoic Acid] | 45000 nM | 83% | 73% | 7.8 nM | – | – | – |
| CC(C)Oc1cccc(-c2cc(COC(C)(C)C(=O)O)nn2Cc2ccccc2Cl)c1 [Example 35, 2-[[1-[(2-Chlorophenyl)methyl]-5-(3-isopropoxyphenyl)pyrazol-3-yl]methoxy]-2-methyl-propanoic acid] | 59000 nM | 31% | 67% | 5.2 nM | – | – | – |
| COc1ccc(-c2cc(COC(C)(C)C(=O)O)nn2Cc2ccccc2Cl)s1 [Example 64, 2-([1-[(2-Chlorophenyl)methyl]-5-(5-methoxythiophen-2-yl)-1H-pyrazol-3-yl]methoxy)-2-methylpropanoic Acid] | 45000 nM | 84% | 82% | 8.3 nM | – | – | – |
| CC(C)(OCc1cc(-c2nccs2)n(Cc2ccccc2Cl)n1)C(=O)O [Example 18, 2-[[1-[(2-Chlorophenyl)methyl]-5-thiazol-2-yl-pyrazol-3-yl]methoxy]-2-methyl-propanoic acid] | – | – | – | – | 45000 nM | 4200 nM | 5300 nM |
| COc1cccc(-c2cc(COC(C)(C)C(=O)O)nn2-c2ccccc2Cl)c1 [Example 57, 2-[[1-(2-chlorophenyl)-5-(3-methoxyphenyl)-1H-pyrazol-3-yl]methoxy]-2-methylpropanoic acid] | > 133000 nM | 100% | 80% | – | – | – | – |
| CC(C)(OCc1cc(-c2ccc(Cl)cc2)n(Cc2ccccn2)n1)C(=O)O [Example 22, 2-[[5-(4-Chlorophenyl)-1-(2-pyridylmethyl)pyrazol-3-yl]methoxy]-2-methyl-propanoic acid] | – | – | – | – | 150000 nM | 39000 nM | 14000 nM |
| CC(C)(OCc1cc(-c2ccc(Cl)cc2)n(Cc2ccccc2)n1)C(=O)O [Example 7, 2-[[1-Benzyl-5-(4-Chlorophenyl)pyrazol-3-yl]methoxy]-2-methyl-propanoic acid] | – | – | – | – | 70000 nM | 460 nM | 720 nM |
| CC(C)(OCc1cc(-c2cccc(F)c2)n(Cc2ccccc2Cl)n1)C(=O)O [Example 12, 2-[[1-[(2-Chlorophenyl)methyl]-5-(3-fluorophenyl)pyrazol-3-yl]methoxy]-2-methyl-propanoic acid] | – | – | – | – | 58000 nM | 49 nM | 38 nM |
| CC(C)(OCc1cc(-c2cccc(Cl)c2)n(Cc2ccccc2Cl)n1)C(=O)O [Example 10, 2-[[5-(3-Chlorophenyl)-1-[(2-chlorophenyl)methyl]pyrazol-3-yl]methoxy]-2-methyl-propanoic acid] | – | – | – | – | 8800 nM | 33 nM | 21 nM |
| CC(C)(OCc1cc(-c2ccccc2Cl)n(Cc2ccccc2Cl)n1)C(=O)O [Example 9, 2-[[5-(2-Chlorophenyl)-1-[(2-chlorophenyl)methyl]pyrazol-3-yl]methoxy]-2-methyl-propanoic acid] | – | – | – | – | 39000 nM | 340 nM | 320 nM |
| CC(C)(OCc1cc(-c2ccccc2)n(Cc2ccccc2Cl)n1)C(=O)O [Example 8, 2-[[1-[(2-Chlorophenyl)methyl]-5-phenyl-pyrazol-3-yl]methoxy]-2-methyl-propanoic acid] | – | – | – | – | 46000 nM | 81 nM | 69 nM |
| CC(C)(OCc1cc(-c2ccc(F)cc2)n(Cc2ccccc2Cl)n1)C(=O)O [Example 4, 2-[[1-[(2-Chlorophenyl)methyl]-5-(4-fluorophenyl)pyrazol-3-yl]methoxy]-2-methyl-propanoic acid] | – | – | – | – | 33000 nM | 54 nM | 68 nM |
| CC(C)(OCc1cc(-c2ccc(Cl)cc2)n(Cc2ccc(Cl)cc2Cl)n1)C(=O)O [Example 5, 2-[[5-(4-Chlorophenyl)-1-[(2,4-dichlorophenyl)methyl]pyrazol-3-yl]methoxy]-2-methyl-propanoic acid] | – | – | – | – | 1800 nM | 63 nM | 160 nM |
| CC(C)(OCc1cc(-c2cccc(C(F)(F)F)c2)n(Cc2ccccc2Cl)n1)C(=O)O [Example 13, 2-[[1-[(2-Chlorophenyl)methyl]-5-[3-(trifluoromethyl)phenyl]pyrazol-3-yl]methoxy]-2-methyl-propanoic acid] | – | – | – | – | 17000 nM | 22 nM | 20 nM |
| CC(C)(OCc1cc(-c2ccc(Cl)cc2)n(Cc2ccncc2)n1)C(=O)O [Example 21, 2-[[5-(4-chlorophenyl)-1-(4-pyridylmethyl)pyrazol-3-yl]methoxy]-2-methyl-propanoic acid] | – | – | – | – | 300000 nM | 48000 nM | 35000 nM |
| CC(C)(OCc1cc(C2CCCCC2)n(Cc2ccccc2Cl)n1)C(=O)O [Example 15, 2-[[1-[(2-Chlorophenyl)methyl]-5-cyclohexyl-pyrazol-3-yl]methoxy]-2-methyl-propanoic acid] | – | – | – | – | > 33000 nM | 440 nM | 900 nM |
| CC(C)(OCc1cc(-c2ccc(Cl)cc2)n(Cc2ccccc2Cl)n1)C(N)=O [Example 20, 2-[[5-(4-Chlorophenyl)-1-[(2-chlorophenyl)methyl]pyrazol-3-yl]methoxy]-2-methyl-propanamide] | – | – | – | – | 7900 nM | 22000 nM | 17000 nM |
